Results reported in the supplement of paper PMC8612539.
Values after ≈ are worked out from the molar mass of the structure shown.

How the values were obtained:
Enterococcus spp. = test: minimum inhibitory concentration (MIC)
Description: (§1)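 Broth microdilution MIC (Sensititre BOPO7F bovine plate, CLSI methods) of 19 antimicrobials against field isolates of P. multocida, M. haemolytica, H. somni (deep nasopharyngeal swabs) and E. coli, Enterococcus spp. (rectal swabs) from weaned dairy heifers. Incubation 16-24 h at 35 C. MIC is the lowest concentration preventing visible growth. Values with <= or > lie at the tested range limits. Trimethoprim-sulfamethoxazole is given as the trimethoprim component of a 1:19 mixture.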

Histophilus somni = test: minimum inhibitory concentration (MIC)
Description: as §1

CC[C@H]1OC(=O)C[C@@H](O)[C@H](C)[C@@H](O[C@@H]2O[C@H](C)[C@@H](O[C@H]3C[C@@](C)(O)[C@@H](O)[C@H](C)O3)[C@H](N(C)C)[C@H]2O)[C@@H](CC=O)C[C@@H](C)C(=O)/C=C/C(C)=C/[C@@H]1CO[C@@H]1O[C@H](C)[C@@H](O)[C@@H](OC)[C@H]1OC [Tylosin]
minimum inhibitory concentration [µg/mL]
Conditions | Enterococcus spp. | Histophilus somni
isolate (source animal id): 2 | 2 (≈ 2.18 µM) | –
isolate (source animal id): 3 | – | 8 (≈ 8.73 µM)
isolate (source animal id): 4 | – | 8 (≈ 8.73 µM)
isolate (source animal id): 7 | – | 8 (≈ 8.73 µM)
isolate (source animal id): 14 | – | 8 (≈ 8.73 µM)
isolate (source animal id): 15 | – | 8 (≈ 8.73 µM)
isolate (source animal id): 17 | – | 8 (≈ 8.73 µM)
isolate (source animal id): 18 | – | 8 (≈ 8.73 µM)
isolate (source animal id): 20 | – | 8 (≈ 8.73 µM)
isolate (source animal id): 23 | – | 2 (≈ 2.18 µM)
isolate (source animal id): 35 | > 32 | –
isolate (source animal id): 42 | 2 (≈ 2.18 µM) | –
isolate (source animal id): 44 | 2 (≈ 2.18 µM) | –
isolate (source animal id): 45 | – | 16 (≈ 17.5 µM)
isolate (source animal id): 53 | – | 16 (≈ 17.5 µM)
isolate (source animal id): 79 | 2 (≈ 2.18 µM) | –
isolate (source animal id): 83 | – | 4 (≈ 4.37 µM)
isolate (source animal id): 88 | 2 (≈ 2.18 µM) | 8 (≈ 8.73 µM)
isolate (source animal id): 91 | 2 (≈ 2.18 µM) | –
isolate (source animal id): 92 | 2 (≈ 2.18 µM) | 8 (≈ 8.73 µM)
isolate (source animal id): 93 | – | 8 (≈ 8.73 µM)
isolate (source animal id): 99 | – | 4 (≈ 4.37 µM)
isolate (source animal id): 100 | – | 8 (≈ 8.73 µM)
isolate (source animal id): 105 | – | 4 (≈ 4.37 µM)
isolate (source animal id): 107 | – | 8 (≈ 8.73 µM)
isolate (source animal id): 108 | – | 4 (≈ 4.37 µM)
isolate (source animal id): 109 | – | 8 (≈ 8.73 µM)
isolate (source animal id): 110 | – | 8 (≈ 8.73 µM)
isolate (source animal id): 111 | 2 (≈ 2.18 µM) | –
isolate (source animal id): 117 | – | 4 (≈ 4.37 µM)
isolate (source animal id): 121 | – | 8 (≈ 8.73 µM)
isolate (source animal id): 122 | > 32 | –
isolate (source animal id): 123 | 2 (≈ 2.18 µM) | 8 (≈ 8.73 µM)
isolate (source animal id): 124 | – | 8 (≈ 8.73 µM)
isolate (source animal id): 127 | – | 8 (≈ 8.73 µM)
isolate (source animal id): 128 | – | 8 (≈ 8.73 µM)
isolate (source animal id): 130 | – | 2 (≈ 2.18 µM)
isolate (source animal id): 132 | – | 8 (≈ 8.73 µM)
isolate (source animal id): 133 | 2 (≈ 2.18 µM) | –
isolate (source animal id): 135 | – | 8 (≈ 8.73 µM)
isolate (source animal id): 140 | – | 8 (≈ 8.73 µM)
isolate (source animal id): 141 | – | 4 (≈ 4.37 µM)
isolate (source animal id): 142 | – | > 32
isolate (source animal id): 144 | – | 8 (≈ 8.73 µM)
isolate (source animal id): 146 | – | 4 (≈ 4.37 µM)
isolate (source animal id): 147 | – | > 32
isolate (source animal id): 151 | – | 8 (≈ 8.73 µM)
isolate (source animal id): 153 | – | 16 (≈ 17.5 µM)
isolate (source animal id): 154 | – | > 32
isolate (source animal id): 156 | – | > 32
isolate (source animal id): 157 | – | 16 (≈ 17.5 µM)
isolate (source animal id): 158 | > 32 | –
isolate (source animal id): 168 | 2 (≈ 2.18 µM) | –
isolate (source animal id): 169 | 2 (≈ 2.18 µM) | –
isolate (source animal id): 171 | 2 (≈ 2.18 µM) | –
isolate (source animal id): 175 | > 32 | –
isolate (source animal id): 176 | – | 32 (≈ 34.9 µM)
isolate (source animal id): 177 | 4 (≈ 4.37 µM) | –
isolate (source animal id): 181 | 2 (≈ 2.18 µM) | –
isolate (source animal id): 182 | 2 (≈ 2.18 µM) | –
isolate (source animal id): 183 | 2 (≈ 2.18 µM) | 16 (≈ 17.5 µM)
isolate (source animal id): 186 | – | 32 (≈ 34.9 µM)
isolate (source animal id): 187 | 2 (≈ 2.18 µM) | –
isolate (source animal id): 190 | 2 (≈ 2.18 µM) | –
isolate (source animal id): 194 | 2 (≈ 2.18 µM) | –
isolate (source animal id): 195 | 2 (≈ 2.18 µM) | –
isolate (source animal id): 196 | – | 8 (≈ 8.73 µM)
isolate (source animal id): 197 | 2 (≈ 2.18 µM) | –
isolate (source animal id): 198 | – | 8 (≈ 8.73 µM)
isolate (source animal id): 200 | – | 8 (≈ 8.73 µM)
isolate (source animal id): 206 | – | 8 (≈ 8.73 µM)
isolate (source animal id): 208 | – | 16 (≈ 17.5 µM)
isolate (source animal id): 210 | – | 8 (≈ 8.73 µM)
isolate (source animal id): 211 | 2 (≈ 2.18 µM) | –
isolate (source animal id): 212 | – | 4 (≈ 4.37 µM)
isolate (source animal id): 214 | 2 (≈ 2.18 µM) | –
isolate (source animal id): 215 | – | 8 (≈ 8.73 µM)
isolate (source animal id): 216 | – | 16 (≈ 17.5 µM)
isolate (source animal id): 218 | – | 8 (≈ 8.73 µM)
isolate (source animal id): 219 | – | 8 (≈ 8.73 µM)
isolate (source animal id): 222 | 4 (≈ 4.37 µM) | –
isolate (source animal id): 223 | 2 (≈ 2.18 µM) | –
isolate (source animal id): 224 | – | 8 (≈ 8.73 µM)
isolate (source animal id): 228 | > 32 | 16 (≈ 17.5 µM)
isolate (source animal id): 230 | > 32 | 32 (≈ 34.9 µM)
isolate (source animal id): 233 | – | 16 (≈ 17.5 µM)
isolate (source animal id): 235 | > 32 | –
isolate (source animal id): 236 | 8 (≈ 8.73 µM) | –
isolate (source animal id): 238 | – | 2 (≈ 2.18 µM)
isolate (source animal id): 239 | 2 (≈ 2.18 µM) | 16 (≈ 17.5 µM)
isolate (source animal id): 241 | > 32 | 16 (≈ 17.5 µM)
isolate (source animal id): 242 | – | 16 (≈ 17.5 µM)
isolate (source animal id): 243 | – | 16 (≈ 17.5 µM)
isolate (source animal id): 244 | 2 (≈ 2.18 µM) | –
isolate (source animal id): 245 | – | 16 (≈ 17.5 µM)
isolate (source animal id): 246 | 2 (≈ 2.18 µM) | 8 (≈ 8.73 µM)
isolate (source animal id): 247 | > 32 | 16 (≈ 17.5 µM)
isolate (source animal id): 248 | – | 4 (≈ 4.37 µM)
isolate (source animal id): 250 | 2 (≈ 2.18 µM) | 16 (≈ 17.5 µM)
isolate (source animal id): 251 | – | 32 (≈ 34.9 µM)
isolate (source animal id): 252 | > 32 | 16 (≈ 17.5 µM)
isolate (source animal id): 254 | – | 16 (≈ 17.5 µM)
isolate (source animal id): 258 | – | 8 (≈ 8.73 µM)
isolate (source animal id): 259 | – | 8 (≈ 8.73 µM)
isolate (source animal id): 262 | – | 8 (≈ 8.73 µM)
isolate (source animal id): 264 | – | 4 (≈ 4.37 µM)
isolate (source animal id): 265 | – | 4 (≈ 4.37 µM)
isolate (source animal id): 266 | – | 8 (≈ 8.73 µM)
isolate (source animal id): 267 | – | 4 (≈ 4.37 µM)
isolate (source animal id): 268 | > 32 | –
isolate (source animal id): 269 | – | 4 (≈ 4.37 µM)
isolate (source animal id): 271 | – | 8 (≈ 8.73 µM)
isolate (source animal id): 272 | – | 4 (≈ 4.37 µM)
isolate (source animal id): 274 | – | 8 (≈ 8.73 µM)
isolate (source animal id): 276 | – | 8 (≈ 8.73 µM)
isolate (source animal id): 278 | – | 4 (≈ 4.37 µM)
isolate (source animal id): 280 | – | 4 (≈ 4.37 µM)
isolate (source animal id): 281 | – | 8 (≈ 8.73 µM)
isolate (source animal id): 282 | 2 (≈ 2.18 µM) | –
isolate (source animal id): 283 | – | 4 (≈ 4.37 µM)
isolate (source animal id): 285 | > 32 | –
isolate (source animal id): 288 | – | 8 (≈ 8.73 µM)
isolate (source animal id): 289 | 2 (≈ 2.18 µM) | –
isolate (source animal id): 290 | 4 (≈ 4.37 µM) | –
isolate (source animal id): 291 | – | 8 (≈ 8.73 µM)
isolate (source animal id): 292 | – | 8 (≈ 8.73 µM)
isolate (source animal id): 296 | 2 (≈ 2.18 µM) | 4 (≈ 4.37 µM)
isolate (source animal id): 298 | ≤ 0.5 | –
isolate (source animal id): 301 | 2 (≈ 2.18 µM) | –
isolate (source animal id): 306 | – | 8 (≈ 8.73 µM)
isolate (source animal id): 310 | > 32 | –
isolate (source animal id): 320 | 2 (≈ 2.18 µM) | –
isolate (source animal id): 331 | 4 (≈ 4.37 µM) | –
isolate (source animal id): 333 | 2 (≈ 2.18 µM) | –
isolate (source animal id): 336 | – | 8 (≈ 8.73 µM)
isolate (source animal id): 337 | – | 8 (≈ 8.73 µM)
isolate (source animal id): 341 | > 32 | 8 (≈ 8.73 µM)
